Test results from ChEMBL document CHEMBL3885861, “Open TG-GATES”.

Organism: Rattus norvegicus
Experiment: Open TG-GATES - Regimen: Single
Assay type: toxicity, organism-based, Sprague-Dawley
Set-up: regimen Single, gender Male, age 6 weeks
Settings: in vivo, iv, 12 mg/kg, route intravenous injection, dose level Low; for APTT / Bas / Eos / Fbg / Hb / Ht / Lym / MCH / MCHC / MCV / Mono / Neu / PT / Plat / RBC / Ret / WBC: tissue Blood; for KIDNEY_L / KIDNEY_R / KIDNEY_TOTAL: tissue Kidney; for LIVER: tissue Liver; for A/G / ALP / ALT / AST / BUN / CRE / Ca / Cl / DBIL / GLC / IP / K / LDH / Na / PL / RALB / TBIL / TC / TG / TP / gamma-GTP: tissue Plasma

SMILES: CN(C)c1ncnc2c1ncn2[C@@H]1O[C@H](CO)[C@@H](N)[C@H]1O [PUROMYCIN AMINONUCLEOSIDE]
- TERMINAL_BW (3 h): 215.3 g
- APTT (3 h): 22.9 s
- Bas (3 h): 0%
- Eos (3 h): 0.8%
- Fbg (3 h): 276 mg/dL
- Hb (3 h): 13.1 g/dL
- Ht (3 h): 38.5%
- Lym (3 h): 69.6%
- MCH (3 h): 21.4 pg
- MCHC (3 h): 33.9%
- MCV (3 h): 63.1 fL
- Mono (3 h): 4%
- Neu (3 h): 24.4%
- PT (3 h): 16 s
- Plat (3 h): 119.9 x10_4/uL
- RBC (3 h): 611.4 x10_4/ul
- Ret (3 h): 6.4%
- WBC (3 h): 112.8 x10_2/uL
- KIDNEY_L (3 h): 1 g
- KIDNEY_R (3 h): 1 g
- KIDNEY_TOTAL (3 h): 1.9 g
- LIVER (3 h): 10 g
- A/G (3 h): 1.3
- ALP (3 h): 1670.4 IU/L
- ALT (3 h): 45.2 IU/L
- AST (3 h): 76.6 IU/L
- BUN (3 h): 13.6 mg/dL
- CRE (3 h): 0.2 mg/dL
- Ca (3 h): 11 mg/dL
- Cl (3 h): 105.6 meq/L
- DBIL (3 h): 0 mg/dL
- GLC (3 h): 181.6 mg/dL
- IP (3 h): 7.8 mg/dL
- K (3 h): 4.2 meq/L
- LDH (3 h): 180.2 IU/L
- Na (3 h): 141.4 meq/L
- PL (3 h): 143.4 mg/dL
- RALB (3 h): 3 g/dL
- TBIL (3 h): 0.02 mg/dL
- TC (3 h): 73.2 mg/dL
- TG (3 h): 72.4 mg/dL
- TP (3 h): 5.4 g/dL
- gamma-GTP (3 h): 1 IU/L
- TERMINAL_BW (6 h): 208.1 g
- APTT (6 h): 22.9 s
- Bas (6 h): 0%
- Eos (6 h): 0.8%
- Fbg (6 h): 316.4 mg/dL
- Hb (6 h): 13.1 g/dL
- Ht (6 h): 39.2%
- Lym (6 h): 72.8%
- MCH (6 h): 20.5 pg
- MCHC (6 h): 33.5%
- MCV (6 h): 61 fL
- Mono (6 h): 3.2%
- Neu (6 h): 22.2%
- PT (6 h): 15.9 s
- Plat (6 h): 119.1 x10_4/uL
- RBC (6 h): 643 x10_4/ul
- Ret (6 h): 6.5%
- WBC (6 h): 104.4 x10_2/uL
- KIDNEY_L (6 h): 0.9 g
- KIDNEY_R (6 h): 0.9 g
- KIDNEY_TOTAL (6 h): 1.8 g
- LIVER (6 h): 8.9 g
- A/G (6 h): 1.3
- ALP (6 h): 1246 IU/L
- ALT (6 h): 37.4 IU/L
- AST (6 h): 71.2 IU/L
- BUN (6 h): 11.6 mg/dL
- CRE (6 h): 0.1 mg/dL
- Ca (6 h): 11.1 mg/dL
- Cl (6 h): 105.6 meq/L
- DBIL (6 h): 0 mg/dL
- GLC (6 h): 182.4 mg/dL
- IP (6 h): 9 mg/dL
- K (6 h): 4.3 meq/L
- LDH (6 h): 153.4 IU/L
- Na (6 h): 140.4 meq/L
- PL (6 h): 136.8 mg/dL
- RALB (6 h): 3 g/dL
- TBIL (6 h): 0.026 mg/dL
- TC (6 h): 71.4 mg/dL
- TG (6 h): 83 mg/dL
- TP (6 h): 5.5 g/dL
- gamma-GTP (6 h): 1.2 IU/L
- TERMINAL_BW (9 h): 212.5 g
- APTT (9 h): 21.5 s
- Bas (9 h): 0%
- Eos (9 h): 1%
- Fbg (9 h): 306.4 mg/dL
- Hb (9 h): 12.5 g/dL
- Ht (9 h): 37.4%
- Lym (9 h): 75%
- MCH (9 h): 20.6 pg
- MCHC (9 h): 33.5%
- MCV (9 h): 61.7 fL
- Mono (9 h): 2.8%
- Neu (9 h): 20.6%
- PT (9 h): 16.2 s
- Plat (9 h): 130.4 x10_4/uL
- RBC (9 h): 607.8 x10_4/ul
- Ret (9 h): 7.7%
- WBC (9 h): 98.3 x10_2/uL
- KIDNEY_L (9 h): 1 g
- KIDNEY_R (9 h): 1 g
- KIDNEY_TOTAL (9 h): 1.9 g
- LIVER (9 h): 8.5 g
- A/G (9 h): 1.3
- ALP (9 h): 1182.4 IU/L
- ALT (9 h): 35.4 IU/L
- AST (9 h): 69.6 IU/L
- BUN (9 h): 10.6 mg/dL
- CRE (9 h): 0.2 mg/dL
- Ca (9 h): 11.1 mg/dL
- Cl (9 h): 105.4 meq/L
- DBIL (9 h): 0 mg/dL
- GLC (9 h): 174 mg/dL
- IP (9 h): 9.9 mg/dL
- K (9 h): 4.3 meq/L
- LDH (9 h): 129.8 IU/L
- Na (9 h): 141.6 meq/L
- PL (9 h): 132.6 mg/dL
- RALB (9 h): 3 g/dL
- TBIL (9 h): 0.03 mg/dL
- TC (9 h): 71.2 mg/dL
- TG (9 h): 81.4 mg/dL
- TP (9 h): 5.4 g/dL
- gamma-GTP (9 h): 1.2 IU/L
- TERMINAL_BW (24 h): 220.5 g
- APTT (24 h): 21.8 s
- Bas (24 h): 0%
- Eos (24 h): 1%
- Fbg (24 h): 309.4 mg/dL
- Hb (24 h): 13 g/dL
- Ht (24 h): 37.8%
- Lym (24 h): 82%
- MCH (24 h): 20.8 pg
- MCHC (24 h): 34.4%
- MCV (24 h): 60.5 fL
- Mono (24 h): 2.6%
- Neu (24 h): 13.6%
- PT (24 h): 15.9 s
- Plat (24 h): 114.8 x10_4/uL
- RBC (24 h): 627.2 x10_4/ul
- Ret (24 h): 6.2%
- WBC (24 h): 91 x10_2/uL
- KIDNEY_L (24 h): 1 g
- KIDNEY_R (24 h): 1 g
- KIDNEY_TOTAL (24 h): 2 g
- LIVER (24 h): 9.9 g
- A/G (24 h): 1.2
- ALP (24 h): 1421.6 IU/L
- ALT (24 h): 43 IU/L
- AST (24 h): 72.2 IU/L
- BUN (24 h): 17.8 mg/dL
- CRE (24 h): 0.2 mg/dL
- Ca (24 h): 11.1 mg/dL
- Cl (24 h): 104.4 meq/L
- DBIL (24 h): 0 mg/dL
- GLC (24 h): 188.6 mg/dL
- IP (24 h): 8.6 mg/dL
- K (24 h): 4.3 meq/L
- LDH (24 h): 156.6 IU/L
- Na (24 h): 141.4 meq/L
- PL (24 h): 153 mg/dL
- RALB (24 h): 3.1 g/dL
- TBIL (24 h): 0.018 mg/dL
- TC (24 h): 75.8 mg/dL
- TG (24 h): 119.4 mg/dL
- TP (24 h): 5.5 g/dL
- gamma-GTP (24 h): 1.2 IU/L
